Reference: the NIST ThermoML archive (doi:10.1016/j.fluid.2016.07.018)
Numbers after ± are expanded uncertainties.

Settings: Liquid
[1] = 313.15 K, gas saturation method
[2] = 333.15 K, gas saturation method
[3] = 353.15 K, gas saturation method
[4] = 373.15 K, gas saturation method
[5] = 393.15 K, gas saturation method
[6] = 423.15 K, gas saturation method

| SMILES | vapor or sublimation pressure [1] [kPa] | vapor or sublimation pressure [2] [kPa] | vapor or sublimation pressure [3] [kPa] | vapor or sublimation pressure [4] [kPa] | vapor or sublimation pressure (381.51 K, Closed cell (Static) method) [kPa] | vapor or sublimation pressure (391.7 K, Closed cell (Static) method) [kPa] | vapor or sublimation pressure [5] [kPa] | vapor or sublimation pressure (401.69 K, Closed cell (Static) method) [kPa] | vapor or sublimation pressure (411.58 K, Closed cell (Static) method) [kPa] | vapor or sublimation pressure (421.43 K, Closed cell (Static) method) [kPa] | vapor or sublimation pressure [6] [kPa] |
| --- | --- | --- | --- | --- | --- | --- | --- | --- | --- | --- | --- |
| CCCCOC(=O)c1ccccc1C(=O)OCCCC [dibutyl phthalate] | 2.4e-05 ± 2e-06 | 0.000195 ± 1.5e-05 | 0.001289 ± 0.0001 | 0.006211 ± 0.00057 | 0.0127 ± 0.0007 | 0.0248 ± 0.0009 | 0.02452 ± 0.0019 | 0.0461 ± 0.0013 | 0.0824 ± 0.0021 | 0.1441 ± 0.0028 | 0.151 ± 0.012 |
| CC(C)COC(=O)c1ccccc1C(=O)OCC(C)C [diisobutyl 1,2-benzenedioate] | 4.1e-05 ± 3e-06 | 0.000436 ± 4.3e-05 | 0.002796 ± 0.00025 | 0.01285 ± 0.001 | – | – | 0.0445 ± 0.0035 | – | – | – | 0.2156 ± 0.017 |
